Test results: ChEMBL document CHEMBL1201862, “PubChem BioAssay data set” (2004)
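Method: 48-hour compound exposure of cells in 96-well plates, five concentrations, linear interpolation of endpoints. GI50 is the concentration that inhibits growth by half.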 Activity calls are given as the source filed them. No stated cut-off is given here; in the data, active = GI50 up to about 1.1 µM and inactive = higher.

Legend:
Test in all cases: NCI anticancer screen, dose series, 48 h
HL-60 = tested on: HL-60
NCI/ADR-RES = tested on: NCI/ADR-RES
TK-10 = tested on: TK-10
M14 = tested on: M14
SF-268 = tested on: SF-268
KM-20L2 = tested on: KM-20L2
IGROV-1 = tested on: IGROV-1
HOP-92 = tested on: HOP-92
786-0 = tested on: 786-0
HOP-62 = tested on: HOP-62
SK-MEL-2 = tested on: SK-MEL-2
PC-3 = tested on: PC-3
MDA-N = tested on: MDA-N
DMS-114 = tested on: DMS-114
LXFL 529 = tested on: LXFL 529
A498 = tested on: A498
MDA-MB-231 = tested on: MDA-MB-231
ACHN = tested on: ACHN
OVCAR-4 = tested on: OVCAR-4
BT-549 = tested on: BT-549

SMILES | GI50 (HL-60) | GI50 (NCI/ADR-RES) | GI50 (TK-10) | GI50 (M14) | GI50 (SF-268) | GI50 (KM-20L2) | GI50 (IGROV-1) | GI50 (HOP-92) | GI50 (786-0) | GI50 (HOP-62) | GI50 (SK-MEL-2) | GI50 (PC-3) | GI50 (MDA-N) | GI50 (DMS-114) | GI50 (LXFL 529) | GI50 (A498) | GI50 (MDA-MB-231) | GI50 (ACHN) | GI50 (OVCAR-4) | GI50 (BT-549)
C=C(CN(C)C)C(=O)c1ccccc1 | 0.577 µM (active) | 32 µM (inactive) | 4.49 µM (inactive) | 2.31 µM (inactive) | 24.5 µM (inactive) | 19.1 µM (inactive) | 18.8 µM (inactive) | 2.06 µM (inactive) | 3.3 µM (inactive) | 32.9 µM (inactive) | 15.2 µM (inactive) | 16 µM (inactive) | 14.2 µM (inactive) | 3.1 µM (inactive) | 2.15 µM (inactive) | 20.7 µM (inactive) | 15.1 µM (inactive) | 2.7 µM (inactive) | 11.4 µM (inactive) | 11.2 µM (inactive)
CC1(C)CCC[C@@]2(C)C1CCC1(C)C(CCc3ccoc3)/C(=C/OS(=O)(=O)O)CCC12 (stereo not given in full) | 37.1 µM (inactive) | – | > 100 µM (inactive) | 42.7 µM (inactive) | > 100 µM (inactive) | 38.2 µM (inactive) | > 100 µM (inactive) | 23.9 µM (inactive) | > 100 µM (inactive) | > 100 µM (inactive) | 58.5 µM (inactive) | – | – | 34.6 µM (inactive) | 50 µM (inactive) | > 100 µM (inactive) | – | > 100 µM (inactive) | 52.5 µM (inactive) | –
COc1cccc(NC(=O)C(=O)C(C(C)=O)c2nc3ccc(Cl)cc3nc2O)c1 (stereo not given) | > 100 µM (inactive) | – | > 100 µM (inactive) | > 100 µM (inactive) | > 100 µM (inactive) | > 100 µM (inactive) | > 100 µM (inactive) | > 100 µM (inactive) | > 100 µM (inactive) | > 100 µM (inactive) | > 100 µM (inactive) | – | – | > 100 µM (inactive) | > 100 µM (inactive) | > 100 µM (inactive) | – | > 100 µM (inactive) | > 100 µM (inactive) | –
N#CCc1ccc(C(C#N)/C(CCCC(=O)Nc2cccc([N+](=O)[O-])c2)=N/NC(N)=S)cc1 (stereo not given) | > 100 µM (inactive) | – | > 100 µM (inactive) | > 100 µM (inactive) | > 100 µM (inactive) | > 100 µM (inactive) | > 100 µM (inactive) | 83.8 µM (inactive) | > 100 µM (inactive) | > 100 µM (inactive) | > 100 µM (inactive) | – | – | 99.1 µM (inactive) | 92 µM (inactive) | > 100 µM (inactive) | – | > 100 µM (inactive) | > 100 µM (inactive) | –
CCOc1ccc(NC(=O)C2=C(C)NC(C)=C(C(=O)Nc3ccc(OCC)cc3)C2c2ccccc2)cc1 | 29.9 µM (inactive) | – | > 100 µM (inactive) | > 100 µM (inactive) | 98.6 µM (inactive) | 67 µM (inactive) | > 100 µM (inactive) | > 100 µM (inactive) | 88.7 µM (inactive) | > 100 µM (inactive) | 56.8 µM (inactive) | – | – | 44.2 µM (inactive) | 51.3 µM (inactive) | > 100 µM (inactive) | – | 74.6 µM (inactive) | > 100 µM (inactive) | –
Nc1ncnc2c1nnn2C1C=C(CO)C(O)C1O (stereo not given) | 12.1 µM (inactive) | – | > 92.5 µM (inactive) | > 52.2 µM (inactive) | 42.7 µM (inactive) | 50.5 µM (inactive) | > 100 µM (inactive) | 14.3 µM (inactive) | 53.2 µM (inactive) | > 92 µM (inactive) | > 60 µM (inactive) | – | – | 44.5 µM (inactive) | > 100 µM (inactive) | > 100 µM (inactive) | – | > 53.5 µM (inactive) | 32.4 µM (inactive) | –
CCOC(=O)Nc1nc2cc(Cn3cccc3)ccc2[nH]1 | 0.27 µM (active) | 0.387 µM (active) | 19.5 µM (inactive) | 1.65 µM (inactive) | 8.73 µM (inactive) | 3.25 µM (inactive) | 1.85 µM (inactive) | 32.2 µM (inactive) | 1.09 µM (active) | 1.36 µM (inactive) | 2.01 µM (inactive) | 0.399 µM (active) | 0.157 µM (active) | 4.9 µM (inactive) | 4.16 µM (inactive) | 1.7 µM (inactive) | 1.57 µM (inactive) | 5.78 µM (inactive) | 16.2 µM (inactive) | > 20.2 µM (inactive)
O=C(C(=O)c1ccc(Cc2ccc(C(=O)C(=O)c3ccccc3)cc2)cc1)c1ccccc1 | > 100 µM (inactive) | – | > 100 µM (inactive) | > 100 µM (inactive) | > 100 µM (inactive) | > 100 µM (inactive) | > 100 µM (inactive) | > 100 µM (inactive) | > 100 µM (inactive) | > 100 µM (inactive) | > 100 µM (inactive) | – | – | > 100 µM (inactive) | > 100 µM (inactive) | > 100 µM (inactive) | – | > 100 µM (inactive) | > 100 µM (inactive) | –
CC(C)[C@@H](COC(C)(C)C)/N=C/N1CCc2c([nH]c3ccccc23)C1 | > 100 µM (inactive) | – | > 100 µM (inactive) | > 100 µM (inactive) | > 100 µM (inactive) | > 100 µM (inactive) | > 100 µM (inactive) | 21.5 µM (inactive) | > 100 µM (inactive) | > 100 µM (inactive) | > 100 µM (inactive) | – | – | > 100 µM (inactive) | > 100 µM (inactive) | > 100 µM (inactive) | – | > 100 µM (inactive) | > 100 µM (inactive) | –
